PMC12389619, “Discovery and Evaluation of Novel Sulfonamide Derivatives Targeting Aromatase in ER+ Breast Cancer” (Pharmaceuticals, 2025)
Read-outs that look alike come from different tables or passages of the source.

What was measured:
[1] = system: NIH3T3 mouse fibroblast cell line; assay: MTT cytotoxicity assay on NIH3T3; settings: read-out: NIH3T3 IC50
Method: (§1) MCF7 and NIH3T3 were grown in Dulbecco’s Modified Eagle Medium (DMEM, Sigma-Aldrich, USA); supplemented with 10% fetal bovine serum (Capricorn Scientific, Ebsdorfergrund, Germany) and 1% antibiotics (100 mg/mL of streptomycin and 100 units of penicillin, Sigma-Aldrich, Taufkirchen, Germany); and incubated until confluent at 37 °C in a humidified incubator with a 5% CO2 atmosphere.
(§2) The cytotoxicity assays were performed using the human MCF7, mouse fibroblast NIH3T3, and human non-tumorigenic mammary epithelial MCF12A cell lines in accordance with the MTT procedure previously reported [37, 38].
(§3) The compounds were dissolved in dimethyl sulfoxide (DMSO, AppliChem, Darmstadt, Germany) and diluted to the required concentrations with fresh medium, while the solvent control was prepared with a medium containing 0.1% DMSO. The half-maximal inhibitory concentrations (IC50) of the compounds were determined by calculating the cell viability via the MTT assay. The cells were harvested and counted using an automated cell counter (LUNA II, Logos Biosystems, Gyeonggi, Republic of Korea). […] Following a 24 h incubation period, the MTT solution was added to the wells to a final concentration of 5 mg/mL. The cells were incubated for a 3 h period, after which point the medium was removed and 100 µL of DMSO was added. The absorbances were measured at 540 nm using a MultiMode Plate Reader (BioTek, HTX Synergy, Winooski, Vermont, USA).

[2] = system: MCF7 human breast cancer cell line; assay: MTT cytotoxicity assay on MCF7; settings: read-out: MCF7 IC50
Method: as §1, §2, §3

Aromatase (CYP19A) [3] = biological target: T1, Aromatase (CYP19A) (Homo sapiens, UniProt P11511); assay: biochemical
T1 sequence (P11511 1-503): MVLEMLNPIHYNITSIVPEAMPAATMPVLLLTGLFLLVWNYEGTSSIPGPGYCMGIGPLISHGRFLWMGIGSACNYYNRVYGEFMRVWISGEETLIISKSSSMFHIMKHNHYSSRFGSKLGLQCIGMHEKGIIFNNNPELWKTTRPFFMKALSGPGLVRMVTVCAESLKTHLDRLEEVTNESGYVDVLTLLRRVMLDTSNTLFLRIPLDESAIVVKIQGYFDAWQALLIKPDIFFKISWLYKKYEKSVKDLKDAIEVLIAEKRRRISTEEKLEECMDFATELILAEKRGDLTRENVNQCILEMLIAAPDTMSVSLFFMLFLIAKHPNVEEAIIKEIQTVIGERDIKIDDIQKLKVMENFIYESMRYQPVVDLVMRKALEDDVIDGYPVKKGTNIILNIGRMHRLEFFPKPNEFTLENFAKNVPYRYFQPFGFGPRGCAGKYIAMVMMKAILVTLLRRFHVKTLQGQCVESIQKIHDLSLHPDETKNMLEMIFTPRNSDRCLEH

Aromatase (CYP19A) [4] = biological target: T1, Aromatase (CYP19A); settings: read-out: Aromatase IC50; means of quartet assays
[5] = system: MCF12A non-tumorigenic mammary cell line; assay: MTT cell viability on MCF12A; assay type: cell-based, human; settings: concentration range 1 mM–1 nM, 24 h
Method: This fact is of crucial importance to the effective and safe treatment of cancer since selectivity refers to the ability of a drug to target cancer cells while minimizing the harm to healthy cells. This targeted approach has the potential to yield more efficacious therapies with a reduced incidence of adverse effects, thereby enhancing patient outcomes.
MCF12A was maintained in DMEM/Ham’s F12 (1:1); supplemented with 5% horse serum, 20 ng/mL of human epidermal growth factor, 0.01 mg/mL of bovine insulin, 500 ng/mL of hydrocortisone, and 100 U/mL (50 µg/mL) of penicillin–streptomycin; and maintained at 37 °C in a humidified atmosphere of 5% CO2.

Compound | IC50 (Aromatase (CYP19A) [3]) | IC50 ([1]; Mus musculus, NIH3T3, 24 h) | IC50 ([2]; Homo sapiens, MCF7, 24 h) | IC50 (Aromatase (CYP19A) [4]) | IC50 ([1]; MTT, 24 h, healthy model, means of quartet assays) | IC50 ([2]; MTT, 24 h, means of quartet assays) | effect on MCF12A cell viability [5]
Cc1ccc(S(=O)(=O)NCCc2ccccn2)cc1 [Compound 2, 4-methyl-N-(2-(pyridin-2-yl)ethyl)benzenesulfonamide] | 0.248 ± 0.01 µM | 51.4 ± 1.74 µM | 15.4 ± 0.356 µM | – | – | – | –
4-methyl-N-(2-morpholinethyl)benzenesulfonamide [Compound 16] | – | – | – | 0.16 ± 0.006 µM | 50.9 ± 1.51 µM | 19.6 ± 0.678 µM | –
Cc1ccc(S(=O)(=O)Nc2ccccn2)cc1 [Compound 3, 4-metyl-N-(pyridin-2-yl)benzenesulfonamide] | 0.035 ± 0.001 µM | 64.3 ± 1.83 µM | 2.68 ± 0.104 µM | – | – | – | –
Cc1ccc(S(=O)(=O)Nc2ccc(Cl)cn2)cc1 [Compound 4, N-(5-chloropyridin-2-yl)-4-methylbenzenesulfonamide] | > 100 µM | > 100 µM | > 100 µM | – | – | – | –
Cc1ccc(S(=O)(=O)NCCN2CCCCC2)cc1 [Compound 11] | – | 29.6 ± 0.812 µM | 43.6 ± 1.86 µM | – | – | – | –
O=S(=O)(NCCN1CCCCC1)c1ccccc1 [Compound 9, N-(2-(piperidin-1-yl)ethyl)benzenesulfonamide] | – | 58.2 ± 0.952 µM | 3.29 ± 0.119 µM | – | – | – | no effects
O=S(=O)(NCCN1CCOCC1)c1ccccc1 [Compound 15, N-(2-morpholinethyl)benzenesulfonamide] | – | 39.3 ± 0.995 µM | 12.4 ± 0.417 µM | – | – | – | –
CN1CCCC1CCNS(=O)(=O)c1ccccc1 (stereo not drawn) [Compound 13, N-(2-(1-methylpyrrolidin-2-yl)ethyl)benzenesulfonamide] | – | 49.6 ± 1.73 µM | 8.06 ± 0.319 µM | – | – | – | –
COc1cccc2c1C(=O)c1c(O)c3c(c(O)c1C2=O)C[C@@](O)(C(=O)CO)C[C@@H]3O[C@H]1C[C@H](N)[C@H](O)[C@H](C)O1 [Doxorubicin, reference compound] | – | > 100 µM | – | – | – | – | –
O=S(=O)(NCCc1ccccn1)c1ccccc1 [Compound 1, N-(2-(pyridin-2-yl)ethyl)benzenesulfonamide] | – | 46.9 ± 1.99 µM | 7.51 ± 0.296 µM | – | – | – | –

Now from value to compound, other results behind:

IC50 (Aromatase (CYP19A) [3]) | Compound | IC50 ([1]; Mus musculus, NIH3T3, 24 h) | IC50 ([2]; Homo sapiens, MCF7, 24 h) | IC50 (Aromatase (CYP19A) [4]) | IC50 ([1]; MTT, 24 h, healthy model, means of quartet assays) | IC50 ([2]; MTT, 24 h, means of quartet assays) | effect on MCF12A cell viability [5]
> 1000 µM | O=S(=O)(NC1CCN(Cc2ccccc2)CC1)c1ccccc1 [Compound 7, N-(1-benzylpiperidin-4-yl)benzenesulfonamide] | 44.3 ± 1.05 µM | 28.5 ± 0.514 µM | – | – | – | –
> 1000 µM | Cc1ccc(S(=O)(=O)NCCCN2CCCC2)cc1 [Compound 12, 4-methyl-N-(3-(pyrrolidin-1-yl)propyl)benzenesulfonamide] | > 100 µM | 32.1 ± 1.17 µM | – | – | – | –
> 100 µM | Cc1ccc(S(=O)(=O)Nc2ncc(Cl)cc2Cl)cc1 [Compound 5, N-(3,5-dichloropyridin-2-yl)-4-methylbenzenesulfonamide] | 76.6 ± 1.13 µM | > 100 µM | – | – | – | –
> 100 µM | O=S(=O)(Cc1ccccc1)Nc1ncc(Cl)cc1Cl [Compound 6, N-(3,5-dichloropyridin-2-yl)-1-phenylmethanesulfonamide] | > 100 µM | 25.3 ± 0.945 µM | – | – | – | –
0.052 ± 0.002 µM | O=S(=O)(Cc1ccccc1)NCCN1CCCCC1 [Compound 10, 1-phenyl-N-(2-(piperidin-1-yl)ethyl)methanesulfonamide] | 30.9 ± 1.03 µM | 6.2 ± 0.258 µM | – | – | – | –
> 1000 µM | Cc1ccc(S(=O)(=O)NC2CCN(Cc3ccccc3)CC2)cc1 [Compound 8, N-(1-benzylpiperidin-4-yl)-4-methylbenzenesulfonamide] | > 100 µM | > 100 µM | – | – | – | –
0.206 ± 0.009 µM | O=S(=O)(Cc1ccccc1)NCCN1CCOCC1 [Compound 17, N-(2-morpholinoethyl)-1-phenylmethanesulfonamide] | 43.1 ± 1.03 µM | 14.6 ± 0.522 µM | – | – | – | –
0.051 ± 0.001 µM | Cc1ccc(S(=O)(=O)NCCC2CCCN2C)cc1 (stereo not drawn) [Compound 14, 4-methyl-N-(2-(1-methylpyrrolidin-2-yl)ethyl)benzenesulfonamide] | 56.1 ± 1.93 µM | 10.5 ± 0.477 µM | – | – | – | –
